The values that follow come from patent US10604476B2, “Fluorinated amide derivatives and their uses as therapeutic agents” (Trillium Therapeutics Inc., priority 2015, dated 2020).

Structures are written as SMILES.

As usually defined, the ED50 is the dose that gives a 50% effect, or the effect in half of the subjects.

Holding throughout (type): in vivo
The subject of one test is corneal kindled seizures. The test is described as follows: Corneal kindling mouse model. The text has this: Mice are kindled electrically with 3 sec stimulation, 8 mA, 60 Hz, and corneal electrodes to a criterion of 10 consecutive Stage 5 seizures (facial clonus and head nodding progressing to forelimb clonus, and finally rearing and falling accompanied by a generalized clonic seizure as described by Racine). Stage 5 is generally reached after twice daily stimulation for 8 days. With continued stimulation once a day, animals usually progress to a reproducible Stage 5 after 10-14 additional days. At least 72 hours after the mice have been kindled, the test substance is administered either i.p. or p.o. and, at the previously determined TPE, each animal is given the electrical stimulus indicated above. Following stimulation, the animals are observed for the presence or absence of the rearing and falling criteria of a Stage 5 seizure. Treated animals not displaying a Stage 3, 4, or 5 seizure are considered protected. The dose of the test substance is varied between the limits of 0 and 100% efficacy, and the ED50 and 95% confidence intervals calculated by probit analysis. Mean values and the S.E.M. are calculated for the length of clonus and seizure duration and p values are determined by the Student's t-test.

Another test has as its system audiogenic seizure (AGS). The test is described as follows: Frings AGS-susceptible mouse model. Particulars: ip, read-out: ED50, block of AGS. From the text:
Frings audiogenic seizure (AGS)-susceptible mice model examines the ability of an investigational drug to alter the onset and/or severity of seizures in a genetic mouse model of seizure susceptibility. Mice are genetically susceptible to sound-induced reflex seizures. Their seizure phenotype is characterized by wild running, loss of righting reflex, tonic flexion, and tonic extension in response to high-intensity sound stimulation. […] For example, the prototypical anticonvulsants phenytoin and ethosuximide display widely divergent clinical spectrums in humans, but are both active against sound-induced seizures in mice. Yet, the preclinical utility of this animal model rests in the useful information that can be obtained within a genetically susceptible model of seizures. Further, efficacy in this model provides proof of concept of brain bioavailability following systemic administration. […] At the time of peak effect as determined in the MES test (Test 4 in CF1 mice), individual mice are placed in a round plexiglass jar (diameter, 15 cm; height, 18 cm) and exposed to a sound stimulus of 110 decibels (11 KHz) delivered for 20 sec. […] The severity of a seizure may also be quantitated by assigning a numerical score to the observed response, e.g. no response—0; wild running for <10 sec—1; wild running for >10 sec—2; clonic seizure—3; forelimb extension/hind limb flexion—4; tonic seizure—5.

Test [1] deals with spontaneous recurrent hippocampal paroxysmal discharges (HPD). Briefly: Mesial temporal lobe epilepsy (mTLE) mouse model. As to conditions: 125 mg/kg; mice lesioned with intrahippocampal kainic acid. From the text:
The MTLE mouse model recapitulates many of the characteristics observed in human patients with temporal lobe epilepsy (TLE). The MTLE mouse is characterized by an initial neurotoxic event, a unilateral intrahippocampal injection of kainic acid (KA) into the dorsal hippocampus, which induces non-convulsive SE lasting several hours. This initial event is followed by a latent phase. Two to three weeks after KA injection, spontaneous recurrent hippocampal paroxysmal discharges (HPD) are only recorded in the epileptic hippocampus and remain stable and stereotyped for the whole life of the animal. These HPDs occur spontaneously about 30-60 times per hour when the animals are in a state of quiet wakefulness, generally last 15-20 sec and are associated with behavioral arrest and/or mild motor automatisms. […] Data are analyzed for the period of 10 minutes before and 10 minutes after peak time of effect of the investigational compound, as determined from the 6 Hz 44 mA seizure test. […] Data are presented as the raw number of HPDs during the analyzed 20 min period (10 minutes before and 10 minutes after peak time of effect of compound) for each MTLE mouse, group mean number of HPDs, and effect on suppression as represented by percent of baseline HPD values.

For `C[C@@H](Oc1cc(Cl)cc(C(F)(F)F)c1)C(N)=O` [I(D), (2R)-2-[3-chloro-5-(trifluoromethyl)-phenoxy]propanamide], the “Average Seizure” value with corneal kindled seizures (35 mg/kg) was 5; with corneal kindled seizures (70 mg/kg), 4.6; with corneal kindled seizures (140 mg/kg) it was 2.4; with corneal kindled seizures (300 mg/kg) it was 0.8. Moreover, the “N/F, number of animals active over the number tested” value was 0/8 in the test with corneal kindled seizures (35 mg/kg), 1/8 with corneal kindled seizures (70 mg/kg), 5/8 in the test on corneal kindled seizures (140 mg/kg) and 8/8 with corneal kindled seizures (300 mg/kg). In addition, the ED50 in the test on corneal kindled seizures (Mus musculus, corneal kindled mice, read-out: ED50, reduction of seizure score (seizure severity)) was found to be 70.4 ± 1 mg/kg; in the test on audiogenic seizure (AGS) it was 28.9 ± 3.08 mg/kg. For the same compound, the “effect against spontaneous recurrent hippocampal paroxysmal discharges (HPD)” value in test [1] is “effective”.
